Data: PMC11085872, “Structure-Based Design of Novel Thiazolone[3,2-a]pyrimidine Derivatives as Potent RNase H Inhibitors for HIV Therapy” (Molecules, 2024)

How the values were obtained:
[1] = molecular target: T1, HIV-1 RT-associated RNase H (Human immunodeficiency virus type 1 group M subtype B, UniProt P03366); experiment: RNase H polymerase-independent cleavage assay; type: biochemical; details: for IC50: IC50, compound concentration required to reduce HIV-1 RT-associated RNase H activity by 50%; for remaining activity at 100 µM: read-out: Percentage of the control activity measured at the indicated compound concentration
T1 construct: His-tagged p66/p51 HIV-1 RT group M subtype B; His tag; made in house; host or cells: Escherichia coli strain M15 (plasmid p6HRT-prot)
Protocol: The Ar^1 and Ar^2 aromatic segments of the molecule also approach the protein surface, through hydrophobic interactions. These findings provide important information for further structural optimization. All these newly designed thiazolone[3,2-a]pyrimidine derivatives were evaluated for their inhibitory activity against HIV RT-associated RNase H, using the diketo acid RDS1643 as positive control. […] The decrease in activity observed in compounds containing a sulfonic acid group might be attributed to the excessively strong acidity of the sulfonic acid group, which could protonate the diazo group within the molecule. […] When Ar^2 was changed from a phenyl group to a naphthyl group, the activity of compound 10f gained a great improvement over that of compound 10k. […] And when a negatively charged polar group was present at the 2-position of Ar^2, the inhibitory activity is enhanced. […]
3. Biology Experimental section
3.1 Expression and purification of recombinant HIV-1 RTs.
His-tagged p66/p51 HIV-1 RT group M subtype B coded in a p6HRT-prot plasmid was expressed in the Escherichia coli strain M15.1 Heterodimeric RTs were expressed essentially and purified as described.2 E. coli cells harboring the expression vector were cultured until reaching an optical density at 600 nm of 0.7. Induction of protein expression was achieved by treating the cells with 1.7 mM isopropyl β-D-1-thiogalactopyranoside (IPTG) for a duration of 4 hours. The subsequent purification of the protein was performed using a BioLogic LP system (BioRad) employing a combination of immobilized metal affinity chromatography and ion exchange […]
To initiate the purification process, the cell pellets were resuspended in lysis buffer at a ratio of 1:2 (cell pellet volume: lysis buffer volume). The lysis buffer used consisted of 50 mM sodium phosphate buffer with a pH of 7.8, supplemented with 0.5 mg/ml lysozyme. The resuspended cells were incubated on ice for 20 minutes. Following this, NaCl was added to achieve a final concentration of 0.3 M. The cells were then subjected to sonication, with four cycles of 60 seconds each, alternating between one second on and one second off. Subsequently, the cell lysate was centrifuged at 30, 000×g for 1 […]
The supernatant obtained from the centrifugation step was loaded onto a Ni2+-NTA-Sepharose column that had been pre-equilibrated with a loading buffer consisting of 50 mM sodium phosphate buffer (pH 7.8), 0.3 M NaCl, 10% glycerol, and 10 mM imidazole. The column was washed with a buffer containing 50 mM sodium phosphate buffer (pH 6.0), 0.3 M NaCl, 10% glycerol, and 80 mM imidazole. The target protein, RT, was eluted using an imidazole gradient ranging from 0.08 M to 0.5 M in the wash buffer. Fractions containing the enzyme were collected and combined, and then diluted 1:1 with 50 mM sodium phosphate buffer (pH 7.0) containing 10% glycerol. The diluted protein sample was loaded onto a Hi-trap heparin HP column that had been pre-equilibrated with 10 column volumes of a loading buffer consisting of 50 mM sodium phosphate buffer (pH 7.0), 10% glycerol, and 150 mM NaCl. The column was washed with the loading buffer, and the RT enzyme was eluted using Elute Buffer 2, which
(1 picture or pasted object on this page, not shown here) […]
comprised 50 mM sodium phosphate buffer (pH 7.0), 10% glycerol, and 1 M NaCl.
The eluted fractions containing the purified protein were collected, and the protein was subsequently dialyzed and stored in a buffer composed of 50 mM Tris-HCl (pH 7.0), 25 mM NaCl, 1 mM EDTA, and 50% glycerol. The catalytic activities of the purified protein samples were determined, and aliquots were stored at -80 °C for further use.
3.2 RNase H Polymerase-Independent Cleavage Assay
The HIV-1 RT-associated RNase H activity was measured as described.3 In summary, the reaction was performed in a black 96-well plate with a total volume of 100 μL. The reaction mix consisted of 50 mM Tris HCl (pH 7.8), 6 mM MgCl2, 1 mM dithiothreitol […]

[2] = recombinant HIV-1 wt RT, hybrid RNA/DNA substrate, 37 °C, 1 hour

| SMILES | IC50 [1, 2] | melting point | remaining activity at 100 µM [1] | IC50, compound concentration required to reduce HIV-1 RT-associated RNase H activity by 50% [1, 2] |
| --- | --- | --- | --- | --- |
| COC(=O)C1=C(C)N=C2SC(=NNc3ccccc3O)C(=O)N2C1c1ccccc1 (centres unmarked) [Compound 10a, Methyl 2-(2-(2-hydroxyphenyl)hydrazineylidene)-7-methyl-3-oxo-5-phenyl-2,3-dihydro-5H-thiazolo[3,2-a]pyrimidine-6-carboxylate] | 18.2 ± 0.85 µM | 227 to 229 °C |  |  |
| COC(=O)C1=C(C)N=C2SC(=NNc3cc(OC)c(OC)c(OC)c3)C(=O)N2C1c1ccccc1 (centres unmarked) [Compound 10c, Methyl 7-methyl-3-oxo-5-phenyl-2-(2-(3,4,5-trimethoxyphenyl)hydrazineylidene)-2,3-dihydro-5H-thiazolo[3,2-a]pyrimidine-6-carboxylate] | 24.4 ± 1.25 µM | 211 to 213 °C |  |  |
| COC(=O)C1=C(C)N=C2S/C(=N\Nc3ccccc3C(=O)OC)C(=O)N2C1c1ccccc1 (centres unmarked) [Compound 10d, Methyl 2-((2-(methoxycarbonyl)phenyl)diazenyl)-7-methyl-3-oxo-5-phenyl-2,3-dihydro-5H-thiazolo[3,2-a]pyrimidine-6-carboxylate] | 8.27 ± 0.39 µM | 184 to 186 °C |  |  |
| COC(=O)C1=C(C)N=C2SC(=NNc3ccc(OC)cc3S(=O)(=O)O)C(=O)N2C1c1ccccc1 (centres unmarked) [Compound 10e, 5-Methoxy-2-(2-(6-(methoxycarbonyl)-7-methyl-3-oxo-5-phenyl-5H-thiazolo[3,2-a]pyrimidin-2(3H)-ylidene)hydrazineyl)benzenesulfonic acid] | 58.4 ± 1.71 µM | 247 to 249 °C |  |  |
| COC(=O)C1=C(C)N=C2S/C(=N\Nc3ccc4ccccc4c3S(=O)(=O)O)C(=O)N2C1c1ccccc1 (centres unmarked) [Compound 10f] | 7.04 ± 0.57 µM | 289 to 293 °C |  |  |
| COC(=O)C1=C(C)N=C2SC(=NNc3ccccc3C(C)=O)C(=O)N2C1c1ccccc1 (centres unmarked) [Compound 10g, Methyl 2-(2-(2-acetylphenyl)hydrazineylidene)-7-methyl-3-oxo-5-phenyl-2,3-dihydro-5H-thiazolo[3,2-a]pyrimidine-6-carboxylate] | 9.01 ± 2.17 µM | 199 to 202 °C |  |  |
| COC(=O)C1=C(C)N=C2SC(=NNc3ccc(OC)c(OC)c3)C(=O)N2C1c1ccccc1 (centres unmarked) [Compound 10h, Methyl 2-(2-(3,4-dimethoxyphenyl)hydrazineylidene)-7-methyl-3-oxo-5-phenyl-2,3-dihydro-5H-thiazolo[3,2-a]pyrimidine-6-carboxylate] | 14.4 ± 1.23 µM | 204 to 206 °C |  |  |
| COC(=O)C1=C(C)N=C2SC(=NNc3ccccc3OC)C(=O)N2C1c1ccccc1 (centres unmarked) [Compound 10i, Methyl 2-(2-(2-methoxyphenyl)hydrazineylidene)-7-methyl-3-oxo-5-phenyl-2,3-dihydro-5H-thiazolo[3,2-a]pyrimidine-6-carboxylate] | 8.32 ± 0.06 µM | 189 to 192 °C |  |  |
| COC(=O)C1=C(C)N=C2SC(=NNc3ccccc3)C(=O)N2C1c1ccccc1 (centres unmarked) [Compound 10j, Methyl 7-methyl-3-oxo-5-phenyl-2-(2-phenylhydrazineylidene)-2,3-dihydro-5H-thiazolo[3,2-a]pyrimidine-6-carboxylate] | 21.45 ± 0.1 µM | 124 to 127 °C |  |  |
| COC(=O)C1=C(C)N=C2S/C(=N\Nc3ccccc3S(=O)(=O)O)C(=O)N2C1c1ccccc1 (centres unmarked) [Compound 10k, (2-(6-(Methoxycarbonyl)-7-methyl-3-oxo-5-phenyl-5H-thiazolo[3,2-a]pyrimidin-2(3H)-ylidene)hydrazineyl)benzenesulfonic acid] | > 100 µM | 262 to 266 °C | 85% |  |
| COC(=O)C1=C(C)N=C2SC(=NNc3cccc([N+](=O)[O-])c3)C(=O)N2C1c1ccccc1 (centres unmarked) [Compound 10l, Methyl 7-methyl-2-(2-(3-nitrophenyl)hydrazineylidene)-3-oxo-5-phenyl-2,3-dihydro-5H-thiazolo[3,2-a]pyrimidine-6-carboxylate] | 6.41 ± 0.24 µM | 250 to 252 °C |  |  |
| COC(=O)C1=C(C)N=C2SC(=NNc3cccc(C(C)=O)c3)C(=O)N2C1c1ccccc1 (centres unmarked) [Compound 10m, Methyl 2-(2-(3-acetylphenyl)hydrazineylidene)-7-methyl-3-oxo-5-phenyl-2,3-dihydro-5H-thiazolo[3,2-a]pyrimidine-6-carboxylate] | 18.4 ± 0.79 µM | 213 to 216 °C |  |  |
| COC(=O)C1=C(C)N=C2SC(=NNc3cccc(C(=O)OC)c3)C(=O)N2C1c1ccccc1 (centres unmarked) [Compound 10n, Methyl 2-(2-(3-(methoxycarbonyl)phenyl)hydrazineylidene)-7-methyl-3-oxo-5-phenyl-2,3-dihydro-5H-thiazolo[3,2-a]pyrimidine-6-carboxylate] | 7.03 ± 0.17 µM | 214 to 216 °C |  |  |
| COC(=O)C1=C(C)N=C2SC(=NNc3ccccc3OC)C(=O)N2C1c1ccc(OC)c(OC)c1OC (centres unmarked) [Compound 11a, Methyl 2-(2-(2-methoxyphenyl)hydrazineylidene)-7-methyl-3-oxo-5-(2,3,4-trimethoxyphenyl)-2,3-dihydro-5H-thiazolo[3,2-a]pyrimidine-6-carboxylate] | 11.8 ± 0.91 µM | 178 to 180 °C |  |  |
| COC(=O)C1=C(C)N=C2SC(=NNc3ccccc3)C(=O)N2C1c1ccc(OC)c(OC)c1OC (centres unmarked) [Compound 11b, Methyl 7-methyl-3-oxo-2-(2-phenylhydrazineylidene)-5-(2,3,4-trimethoxyphenyl)-2,3-dihydro-5H-thiazolo [3,2-a]pyrimidine-6-carboxylate] | 48.9 ± 4.73 µM | 189 to 192 °C |  |  |
| COC(=O)C1=C(C)N=C2SC(=NNc3cccc([N+](=O)[O-])c3)C(=O)N2C1c1ccc(OC)c(OC)c1OC (centres unmarked) [Compound 11d, Methyl 7-methyl-2-(2-(3-nitrophenyl)hydrazineylidene)-3-oxo-5-(2,3,4-trimethoxyphenyl)-2,3-dihydro-5H-thiazolo[3,2-a]pyrimidine-6-carboxylate] | 10.1 ± 1.64 µM | 236 to 238 °C |  |  |
| COC(=O)C1=C(C)N=C2SC(=NNc3ccccc3S(=O)(=O)O)C(=O)N2C1c1ccc(OC)c(OC)c1OC (centres unmarked) [Compound 11e, 2-(2-(6-(Methoxycarbonyl)-7-methyl-3-oxo-5-(2,3,4-trimethoxyphenyl)-5H-thiazolo[3,2-a]pyrimidin-2(3H)-ylidene)hydrazineyl)benzenesulfonic acid] | > 100 µM | 238 to 240 °C | 97% |  |
| COC(=O)C1=C(C)N=C2SC(=NNc3ccc(OC)cc3S(=O)(=O)O)C(=O)N2C1c1ccc(OC)c(OC)c1OC (centres unmarked) [Compound 11f, 5-Methoxy-2-(2-(6-(methoxycarbonyl)-7-methyl-3-oxo-5-(2,3,4-trimethoxyphenyl)-5H-thiazolo[3,2-a]pyrimidin-2(3H)-ylidene)hydrazineyl)benzenesulfonic acid] | > 100 µM | 244 to 246 °C | 61% |  |
| COC(=O)C1=C(C)N=C2S/C(=N\Nc3ccc4ccccc4c3S(=O)(=O)O)C(=O)N2C1c1ccc(OC)c(OC)c1OC (centres unmarked) [Compound 11g, (2-(6-(Methoxycarbonyl)-7-methyl-3-oxo-5-(2,3,4-trimethoxyphenyl)-5H-thiazolo[3,2-a]pyrimidin-2(3H)-ylidene)hydrazineyl)naphthalene-1-sulfonic acid] |  | 241 to 244 °C |  |  |
| CCOC(=O)C(=O)CC(=O)/C=C/c1cccn1Cc1ccc(F)cc1 [RDS1643, reference compound] |  |  |  | 8.6 ± 1.30 µM |
